Measurements: patent publication US9957264B2 (Merck Sharp & Dohme Corp., priority 2013, dated 2018)
pIC50: −log10 of the molar value.

Legend:
[1] = biological target: JAK1 (recombinant purified GST-tagged catalytic domain) (Homo sapiens (Human), UniProt P23458); experiment: Jak Biochemical HTRF Assay (JAK1); details: [ATP] 31.8 μM
Summary of the method: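 Compounds in DMSO were pre-equilibrated with enzyme and biotinylated peptide, then ATP was added and the reaction proceeded 120 min at room temperature. EDTA-based stop buffer with detection reagents was added, and after 60 min the time-resolved FRET ratio was read. IC50s came from 4-parameter dose–response fits.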

[2] = biological target: JAK2 (recombinant purified GST-tagged catalytic domain) (Homo sapiens (Human), UniProt O60674); experiment: Jak Biochemical HTRF Assay (JAK2); details: [ATP] 8.5 μM
Chain of JAK2 (recombinant purified GST-tagged catalytic domain) (O60674 849-1124): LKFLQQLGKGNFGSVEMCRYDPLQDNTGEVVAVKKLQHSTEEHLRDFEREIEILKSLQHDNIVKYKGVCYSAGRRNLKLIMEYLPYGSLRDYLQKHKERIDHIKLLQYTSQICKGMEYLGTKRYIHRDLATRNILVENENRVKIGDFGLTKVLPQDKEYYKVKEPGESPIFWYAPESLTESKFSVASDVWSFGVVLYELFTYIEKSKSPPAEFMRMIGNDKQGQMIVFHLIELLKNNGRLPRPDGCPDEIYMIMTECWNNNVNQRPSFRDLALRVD

Chain of JAK1 (recombinant purified GST-tagged catalytic domain) (P23458 875-1153): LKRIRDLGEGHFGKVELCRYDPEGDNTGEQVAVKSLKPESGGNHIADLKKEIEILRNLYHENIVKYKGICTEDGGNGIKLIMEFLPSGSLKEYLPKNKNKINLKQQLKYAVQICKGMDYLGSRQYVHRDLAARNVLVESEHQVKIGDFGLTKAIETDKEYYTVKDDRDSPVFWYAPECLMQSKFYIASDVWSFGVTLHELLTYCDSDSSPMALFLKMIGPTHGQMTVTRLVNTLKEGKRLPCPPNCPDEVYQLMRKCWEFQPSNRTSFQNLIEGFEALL

pIC50 [1] | pIC50 [2] | Compound
10.05 | 10.00 | Cc1cc(Nc2nn([C@@]3(CC#N)CCCC[C@H]3F)c3cc[nH]c(=O)c23)ccc1C(=O)N1CCOCC1 [Example 5-151, 2-((1R,2R)-2-fluoro-1-(3-((3-methyl-4-(morpholine-4-carbonyl)phenyl)amino)-4-oxo-4,5-dihydro-1H-pyrazolo[4,3-c]pyridin-1-yl)cyclohexyl)acetonitrile]
10.00 | 9.68 | COC(=O)N1CCC(CC#N)(n2nc(Nc3ccc4c(c3)CCC4(O)C(F)(F)F)c3c(=O)[nH]ccc32)CC1 (single isomer, unassigned) [Example 5-144, (R or S)-methyl 4-(cyanomethyl)-4-(3-((1-hydroxy-1-(trifluoro-methyl)-2,3-dihydro-1H-inden-5-yl)amino)-4-oxo-4,5-dihydro-1H-pyrazolo[4,3-c]pyridin-1-yl)piperidine-1-carboxylate]
10.15 | 10.10 | Cc1cc(Nc2nn([C@]3(CC#N)CCOC[C@@H]3F)c3cc[nH]c(=O)c23)ccc1C(=O)N1CCOCC1 (single isomer, unassigned) [Example 5-258, 2-((3R,4R or 3S,4S)-3-fluoro-4-(3-((3-methyl-4-(morpholine-4-carbonyl)phenyl)amino)-4-oxo-4,5-dihydro-1H-pyrazolo[4,3-c]pyridin-1-yl)tetrahydro-2H-pyran-4-yl)acetonitrile]
10.05 | 8.88 | Cc1nc2ccc(Nc3nn(C4(CC#N)CCCOC4)c4cc[nH]c(=O)c34)cc2s1 (stereo in doubt) [Example 21-5, [(3S)-3-{3-[(2-methyl-1,3-benzothiazol-6-yl)amino]-4-oxo-4,5-dihydro-1H-pyrazolo[4,3-c]pyridin-1-yl}tetrahydro-2H-pyran-3-yl]acetonitrile]
9.77 | 9.52 | Cc1cc(Nc2nn([C@]3(CC#N)CC[C@@H](C(=O)OC(C)(C)C)OC3)c3cc[nH]c(=O)c23)ccc1C(=O)N1CCSC1C (single isomer, unassigned) [Example 5-156, (2S,5S)-tert-butyl 5-(cyanomethyl)-5-(3-((3-methyl-4-((S or R)-2-methylthiazolidine-3-carbonyl)phenyl)amino)-4-oxo-4,5-dihydro-1H-pyrazolo[4,3-c]pyridin-1-yl)tetrahydro-2H-pyran-2-carboxylate]
7.39 | 8.60 | CC(C)(C)OC(=O)N1CC(CC#N)(n2nc(NC3CC3)c3c(=O)[nH]ccc32)C1 [Example 3, tert-butyl 3-(cyanomethyl)-3-[3-(cyclopropylamino)-4-oxo-4,5-dihydro-1H-pyrazolo[4,3-c]pyridin-1-yl]azetidine-1-carboxylate]
7.77 | 6.76 | N#CC[C@]1(n2nc(Nc3ccc4nccc(F)c4c3)c3c(=O)[nH]ccc32)CCOC1 (single isomer, unassigned) [Example 5-246, [(3S or 3R)-3-{3-[(4-fluoroquinolin-6-yl)amino]-4-oxo-4,5-dihydro-1H-pyrazolo[4,3-c]pyridin-1-yl}tetrahydrofuran-3-yl]acetonitrile]
10.15 | 9.74 | CC(C)S(=O)(=O)c1ccc(Nc2nn([C@]3(CC#N)CC[C@@H](C(=O)OC(C)(C)C)OC3)c3cc[nH]c(=O)c23)cc1 [Example 5-98, (2S,5S)-tert-butyl 5-(cyanomethyl)-5-(3-((4-(isopropylsulfonyl)phenyl)amino)-4-oxo-4,5-dihydro-1H-pyrazolo[4,3-c]pyridin-1-yl)tetrahydro-2H-pyran-2-carboxylate]
10.52 | 8.60 | COC1CN([C@H]2CC[C@](CC#N)(n3nc(Nc4ccc(Cl)cc4)c4c(=O)[nH]ccc43)CC2)C1 [Example 18-8, Trans 2-(1-(3-((4-chlorophenyl)amino)-4-oxo-4,5-dihydro-1H-pyrazolo[4,3-c]pyridin-1-yl)-4-(3-methoxyazetidin-1-yl)cyclohexyl)acetonitrile]
9.77 | 10.05 | COC(c1ccc(Nc2nn([C@@]3(CC#N)CCN(C(=O)OC(C)(C)C)C[C@H]3F)c3cc[nH]c(=O)c23)cc1)C(F)(F)F (some centres unmarked) [Example 5-275]
9.74 | 9.37 | COC(=O)N1CCC(CC#N)(n2nc(Nc3ccc(C(C)(O)C(F)(F)F)cc3)c3c(=O)[nH]ccc32)CC1 (single isomer, unassigned) [Example 5-141, (R or S)-methyl 4-(cyanomethyl)-4-(4-oxo-3-((4-(1,1,1-trifluoro-2-hydroxypropan-2-yl)phenyl)amino)-4,5-dihydro-1H-pyrazolo[4,3-c]pyridin-1-yl)piperidine-1-carboxylate]
9.92 | 9.43 | COC(=O)N1CCC(CC#N)(n2nc(Nc3ccc4c(c3)CN(CC3CCCC3)S4(=O)=O)c3c(=O)[nH]ccc32)CC1 [Example 5-75, methyl 4-(cyanomethyl)-4-(3-{[2-(cyclopentylmethyl)-1,1-dioxo-2,3-dihydro-1,2-benzothiazol-5-yl]amino}-4-oxo-1H,4H,5H-pyrazolo [4,3-c]pyridin-1-yl) piperidine-1-carboxylate]
10.15 | 9.24 | COC(=O)N1CCC(CC#N)(n2nc(Nc3ccc4c(c3)CN(C)S4(=O)=O)c3c(=O)[nH]ccc32)CC1 [Example 5-70, methyl 4-(cyanomethyl)-4-[3-[(2-methyl-1,1-dioxo-2,3-dihydro-1,2-benzothiazol-5-yl)amino]-4-oxo-1H,4H,5H-pyrazolo[4,3-c]pyridin-1-yl]piperidine-1-carboxylate]
9.49 | 9.46 | CC(C)NC(c1ccc(Nc2nn([C@]3(CC#N)CC[C@@H](C(=O)OC(C)(C)C)OC3)c3cc[nH]c(=O)c23)cc1)C(F)(F)F (single isomer, unassigned) [Example 5-209, (2S,5S)-tert-butyl 5-(cyanomethyl)-5-(4-oxo-3-((4-((R or S)-2,2,2-trifluoro-1-(isopropylamino)ethyl)phenyl)amino)-4,5-dihydro-1H-pyrazolo [4,3-c]pyridin-1-yl)tetrahydro-2H-pyran-2-carboxylate]
9.68 | 9.20 | CN(C)S(=O)(=O)c1ccc(Nc2nn(C3(CC#N)CCN(Cc4ccc(F)cc4)CC3)c3cc[nH]c(=O)c23)cc1 [Example 8-7, 4-({1-[4-(cyanomethyl)-1-(4-fluorobenzyl)piperidin-4-yl]-4-oxo-4,5-dihydro-1H-pyrazolo[4,3-c]pyridin-3-yl}amino)-N,N-dimethylbenzenesulfonamide]
9.70 | 9.26 | CS(=O)(=O)c1ccc(Nc2nn(C3(CC#N)CCN(c4ccc(C(F)(F)F)cn4)CC3)c3cc[nH]c(=O)c23)cc1 [Example 15-4, 2-(4-(3-((4-(methylsulfonyl)phenyl)amino)-4-oxo-4,5-dihydro-1H-pyrazolo[4,3-c]pyridin-1-yl)-1-(5 (trifluoromethyl)pyridin-2-yl)piperidin-4-yl)acetonitrile]
8.71 | 8.66 | CC(C)OC(=O)C(C)(C)C(O)(c1ccc(Nc2nn([C@]3(CC#N)CC[C@@H](C(=O)OC(C)(C)C)OC3)c3cc[nH]c(=O)c23)cc1)C(F)(F)F (single isomer, unassigned) [Example 5-163, (2S,5S)-tert-butyl 5-(cyanomethyl)-5-(4-oxo-3-((4-((S or R)-1,1,1-trifluoro-2-hydroxy-4-isopropoxy-3,3-dimethyl-4-oxobutan-2-yl)phenyl)amino)-4,5-dihydro-1H-pyrazolo[4,3-c]pyridin-1-yl)tetrahydro-2H-pyran-2-carboxylate]
9.37 | 8.95 | CC(C)(C)OC(=O)N1CCC(CC#N)(n2nc(Nc3ccc([C@@H](O)C(F)(F)F)cc3)c3c(=O)[nH]ccc32)CC1 (single isomer, unassigned) [Example 5-3, tert-butyl 4-(cyanomethyl)-4-[4-oxo-3-({4-[(1R or 1S)-2,2,2-trifluoro-1-hydroxyethyl]phenyl}amino)-4,5-dihydro-1H-pyrazolo[4,3-c]pyridin-1-yl]piperidine-1-carboxylate]
9.21 | 8.91 | CO[C@H]1CCN(C(=O)c2ccc(Nc3nn([C@]4(CC#N)CCCOC4)c4cc[nH]c(=O)c34)cc2C)C1 [Example 5-116, 2-((S)-3-(3-((4-((S)-3-methoxypyrrolidine-1-carbonyl)-3-methylphenyl)amino)-4-oxo-4,5-dihydro-1H-pyrazolo[4,3-c]pyridin-1-yl)tetrahydro-2H-pyran-3-yl)acetonitrile]
9.82 | 8.84 | COC1CN([C@H]2CC[C@](CC#N)(n3nc(Nc4ccc(OC(F)(F)F)cc4)c4c(=O)[nH]ccc43)CC2)C1 [Example 18-16, Trans 2-(4-(3-methoxyazetidin-1-yl)-1-(4-oxo-3-((4-(trifluoromethoxy)phenyl)amino)-4,5-dihydro-1H-pyrazolo[4,3-c]pyridin-1-yl)cyclohexyl)acetonitrile]
10.05 | 9.72 | CC1(C)C(=O)Nc2cc(Nc3nn([C@]4(CC#N)CCCOC4)c4cc[nH]c(=O)c34)ccc21 [Example 21-4, [(3S)-3-{3-[(3,3-dimethyl-2-oxo-2,3-dihydro-1H-indol-6-yl)amino]-4-oxo-4,5-dihydro-1H-pyrazolo[4,3-c]pyridin-1-yl}tetrahydro-2H-pyran-3-yl]acetonitrile]
9.85 | 9.32 | CC(C)(C)OC(=O)[C@@H]1CC[C@@](CC#N)(n2nc(Nc3ccc(C(C)(O)C(F)(F)F)cc3)c3c(=O)[nH]ccc32)CO1 (single isomer, unassigned) [Example 5-170, (2S,5S)-tert-butyl 5-(cyanomethyl)-5-(4-oxo-3-((4-((S or R)-1,1,1-trifluoro-2-hydroxypropan-2-yl)phenyl)amino)-4,5-dihydro-1H-pyrazolo[4,3-c]pyridin-1-yl)tetrahydro-2H-pyran-2-carboxylate]
